Article PMC9257445 (Journal of Pharmaceutical Analysis, 2021)
pKd: −log10 of the molar value.

Target: T1, tumor necrosis factor receptor type 1 (TNF-R1) (Homo sapiens, UniProt P19438)
T1 sequence (P19438 30-455): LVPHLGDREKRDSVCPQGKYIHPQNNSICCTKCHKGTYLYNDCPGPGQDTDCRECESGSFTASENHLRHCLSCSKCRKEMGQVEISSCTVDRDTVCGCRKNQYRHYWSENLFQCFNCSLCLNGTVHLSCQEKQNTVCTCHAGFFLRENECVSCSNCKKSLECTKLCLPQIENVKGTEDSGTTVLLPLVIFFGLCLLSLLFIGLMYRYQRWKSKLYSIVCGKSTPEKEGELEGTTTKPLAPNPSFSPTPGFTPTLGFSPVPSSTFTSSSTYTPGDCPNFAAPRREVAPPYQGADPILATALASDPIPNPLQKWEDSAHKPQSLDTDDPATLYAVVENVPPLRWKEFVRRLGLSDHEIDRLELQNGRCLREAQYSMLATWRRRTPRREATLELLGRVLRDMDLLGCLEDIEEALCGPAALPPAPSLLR
Assay: SPR
Assay type: binding

**Q.** `COc1ccc(C(C)=O)c(O)c1` [paeonol] was tested. Which pKd did it give?
**A.** 4.93
